Entries after “also recorded” stand apart in the source; their conditions may differ.
Tests used:
[1] = range 60-400; cited from earlier work
schizophrenia = conditions: cited from earlier work; for Effect on psychosis / symptoms of schizophrenia, other anticonvulsants: reports on use in schizophrenia (Citrome 2003, p. 85); for Effect on symptoms of schizophrenia: add-on to antipsychotics (Citrome 2003, p. 86)
C57BL/6J mice = assay: Prepulse inhibition (PPI) of the acoustic startle reflex in mice; assay type: in vivo; conditions: for Mean PPI: 30 min prior to testing
Excerpt: Chow and water were provided ad libitum for the duration of the study.
Responses were sampled every ms. The inter-trial interval was variable with an average of 15 s (range from 10 to 20 s).

GABA receptor subtypes = conditions: cited from earlier work
[2] = test system: voltage-gated sodium channels; conditions: cited from earlier work
[3] = test system: voltage-gated calcium channels; conditions: cited from earlier work
potassium currents = conditions: cited from earlier work

SMILES: CCCCCCCCCC(=O)OCCN1CCN(CC/C=C2/c3ccccc3Sc3ccc(Cl)cc32)CC1 [Zuclopenthixol decanoate]
- Minimum effective dose [1]: 200 mg/2 weeks

SMILES: NC(=O)N1c2ccccc2C=Cc2ccccc21 [carbamazepine]
- Clinical outcome compared with antipsychotic monotherapy (schizophrenia; add-on to haloperidol): worse clinical outcome
- Improvement on the total BPRS (brief psychiatric rating scale) (schizophrenia; another study on the use of carbamazepine): failure to detect significant improvement

SMILES: CC1(C)O[C@@H]2[C@@H](CO[C@@]3(COS(N)(=O)=O)OC(C)(C)O[C@@H]23)O1 [topiramate]
- Effect on psychosis / symptoms of schizophrenia, other anticonvulsants (schizophrenia): deterioration in both positive and negative symptoms

SMILES: NCC1(CC(=O)O)CCCCC1 [gabapentin]
- Effect on psychosis / symptoms of schizophrenia, other anticonvulsants (schizophrenia): general worsening of psychosis

SMILES: Nc1nnc(-c2cccc(Cl)c2Cl)c(N)n1 [lamotrigine]
- Effect on symptoms of schizophrenia (schizophrenia): preferentially reduce the positive symptoms
- Effect in schizophrenia when added to clozapine (schizophrenia; added to clozapine, double-blind placebo controlled clinical trial, treatment-resistant schizophrenia): beneficial for the treatment of treatment-resistant schizophrenia; also recorded: improvement of positive, not negative symptoms

SMILES: CN1CCN(C2=Nc3cc(Cl)ccc3Nc3ccccc32)CC1 [clozapine]
- Mean PPI (C57BL/6J mice; VEH 1/clozapine 3 mg/kg i.p., PPI expressed as a percentage of the basic startle response): 45 ± 2

SMILES: CCCC(CCC)C(=O)O [Valproate]
- Effect on symptoms of schizophrenia (schizophrenia): preferentially reduce the positive symptoms
- Effect on onset of action of the antipsychotic (schizophrenia; add-on to olanzapine or risperidone (Casey et al. 2003)): enhance the onset of action

SMILES: COC[C@@H](NC(C)=O)C(=O)NCc1ccccc1 [lacosamide, (R)-2-acetamide-N-benzyl-3-methoxypropionamide]
- Mean PPI (C57BL/6J mice; lacosamide 3 mg/kg/VEH 2 i.p.): 29 ± 3
- Mean PPI (C57BL/6J mice; lacosamide 10 mg/kg/VEH 2 i.p.): 34 ± 3
- Mean PPI (C57BL/6J mice; lacosamide 30 mg/kg/VEH 2 i.p.): 27 ± 2
- Effect on prepulse inhibition compared to vehicle (C57BL/6J mice; lacosamide administered alone, any dose tested): did not have any significant effect; also recorded: no significant effect
- Direct interaction with known GABA receptor subtypes (GABA receptor subtypes): does not directly interact
- Inhibition of voltage-gated sodium channels [2]: does not inhibit
- Inhibition of voltage-gated calcium channels [3]: does not inhibit
- Potentiation of potassium currents (potassium currents): does not potentiate
